The numbers were not newly measured in patent US11066360B2, “Human plasma kallikrein inhibitors” (priority 2015, dated 2021), which cites them from elsewhere.

The test system of series [1] is LPS- or bacterial-induced sepsis in animals.
Series [2] concerns patients with hereditary angioedema (HAE). The settings on record: human, in vivo.
Series [3] relates to mouse model of middle cerebral artery occlusion (MCAO).

Where a SMILES comes first, the peptide text is derived from it.

Take `NC(N)=NCCC[C@H](NC(=O)[C@H](Cc1ccccc1)NC(=O)[C@H]1CCCN1)C(=O)CCl` [CMK, H-D-Pro-Phe-Arg-chloromethylketone] (HELM PEPTIDE1{[dP].F.R.[ClC[*:1]]}$$$$V2.0): in series [1], the lesions entry is on record as “reduce” and the “vascular permeability in multiple organs” value is given as “reduce”.
In the case of `NC(N)=NCCC[C@@H](N)C(=O)N[C@@H](CCCN=C(N)N)C(=O)N1CCC[C@H]1C(=O)N1C[C@H](O)C[C@H]1C(=O)NCC(=O)N[C@@H](Cc1cccs1)C(=O)N[C@@H](CO)C(=O)N1Cc2ccccc2C[C@@H]1C(=O)N1[C@H](C(=O)N[C@@H](CCCN=C(N)N)C(=O)O)C[C@@H]2CCCC[C@@H]21` [Icatibant], in series [2], the “treating HAE” value was “effective”.
Turning to `Cl.NCC1CCC(C(=O)N[C@@H](Cc2ccccc2)C(=O)Nc2ccc(CC(=O)O)cc2)CC1` (some centres unmarked) [PKSI-527], the joint swelling result in the series with rat models of arthritis is “reduce”.
Take “C1-inhibitor: a physiological inhibitor (C1-inhibitor) [Compound C1-inhibitor]”: in series [1], the lesions result was “reduce” and the “vascular permeability in multiple organs” value was “reduce”. In addition, the infarct size result in series [3] is on record as “reduced”. Further, in the series with sepsis patients, the “clinical improvement in sepsis patients” value was “Clinical improvement”.
